Measured values published in paper PMC9973354 (mBio, 2022).
Like-named read-outs stand apart in the source and are kept apart here. Starred links: 1 amine or outer side, 2 acyl side, 3 side chain; linkers in the order of their positions; H or OH if unused. Positions of bridges follow the written chain, without caps; N, C: chain ends. Non-standard residues stand in square brackets, D forms with d. Residues, ends and D or L forms follow the SMILES beside them. ξ: configuration not given here. X1 = O=C([C@@H]1CCN=C2C(N[*:1])=Cc3cc(O)c(O)cc3N21)[*:2]; ξOrn(N(OH)CHO) = NC(CCCN(O)C=O)C(=O)O; Suc = O=C(CCC(=O)[*:2])[*:1]; ξK = NCCCCC(N)C(=O)O; ξS = NC(CO)C(=O)O

Experiments:
PA14 ΔfpvA ΔfpvB mutant = assay: Growth curves with DSX and siderophores, ΔfpvA ΔfpvB; type: cell-based, Pseudomonas aeruginosa; settings: 20 h
Procedure: (§1) Supplementary file : FIG S1 (A) FpvB is expressed in WT PA14 and the ΔfpvA mutant grown in 10:90. PilF was used as a loading control for outer membrane proteins. (B) FpvA is expressed from WT PA14 grown in 10:90. […] PilF was used as a loading control for outer membrane proteins. (C) Growth curves of PA14 and mutants with DSX and different siderophores in 10:90. PA14, ΔfpvA, ΔfpvB, ΔfpvA ΔfpvB, and ΔpvdA ΔpchA strain growth. Blue indicates control, purple indicates treatment with 64 μg/mL DSX, yellow indicates treatment with 10 μg/mL pyoverdine (PA14), and red indicates treatment with 64 μg/mL DSX and 10 μg/mL pyoverdine (PA14). (D) ΔfpvA, ΔfpvA ΔfpvB, and ΔpvdA ΔpchA strain growth. Blue indicates control, purple indicates treatment with 64 μg/mL DSX, grey indicates treatment with 10 μg/mL ferrichrome, and red indicates treatment with 64 μg/mL DSX and 10 μg/mL ferrichrome. (E) ΔfpvA, ΔfpvA ΔfpvB, and ΔpvdA ΔpchA strain growth. […] Download FIG S1, EPS file, 8.5 MB.
(§2) Another explanation for the susceptibility of the ΔfpvA mutant to DSX is that the mutant produces less pyoverdine compared to WT cells due to loss of the signaling cascade that controls siderophore production in response to its binding to FpvA ([25]). To differentiate whether the fpvA mutant was susceptible to DSX because of reduced pyoverdine production or because FpvB was a poor pyoverdine transporter, we treated the WT, ΔfpvA, ΔfpvB, and ΔfpvA ΔfpvB strains with DSX (64 μg/mL) without and with exogenous pyoverdine (10 μg/mL) for 20 h (Fig. 1; see also Fig. S1C). Growth of the ΔfpvA mutant should be restored if there are functional pyoverdine transporters. […] The growth of the ΔfpvA ΔfpvB mutant was inhibited by DSX and pyoverdine, confirming previously published results ([18]).
(§3) As a control, a ΔpvdA ΔpchA mutant unable to make pyoverdine and pyochelin was also tested. Growth of this mutant was inhibited by DSX.

FpvB R648C = biological target: T1, FpvB R648C (Pseudomonas aeruginosa, UniProt A0A0H2ZFZ5, R648C); assay: Fluorescence recovery assay (siderophore uptake by FpvB); type: cell-based
T1 sequence (A0A0H2ZFZ5 23-802 R648C): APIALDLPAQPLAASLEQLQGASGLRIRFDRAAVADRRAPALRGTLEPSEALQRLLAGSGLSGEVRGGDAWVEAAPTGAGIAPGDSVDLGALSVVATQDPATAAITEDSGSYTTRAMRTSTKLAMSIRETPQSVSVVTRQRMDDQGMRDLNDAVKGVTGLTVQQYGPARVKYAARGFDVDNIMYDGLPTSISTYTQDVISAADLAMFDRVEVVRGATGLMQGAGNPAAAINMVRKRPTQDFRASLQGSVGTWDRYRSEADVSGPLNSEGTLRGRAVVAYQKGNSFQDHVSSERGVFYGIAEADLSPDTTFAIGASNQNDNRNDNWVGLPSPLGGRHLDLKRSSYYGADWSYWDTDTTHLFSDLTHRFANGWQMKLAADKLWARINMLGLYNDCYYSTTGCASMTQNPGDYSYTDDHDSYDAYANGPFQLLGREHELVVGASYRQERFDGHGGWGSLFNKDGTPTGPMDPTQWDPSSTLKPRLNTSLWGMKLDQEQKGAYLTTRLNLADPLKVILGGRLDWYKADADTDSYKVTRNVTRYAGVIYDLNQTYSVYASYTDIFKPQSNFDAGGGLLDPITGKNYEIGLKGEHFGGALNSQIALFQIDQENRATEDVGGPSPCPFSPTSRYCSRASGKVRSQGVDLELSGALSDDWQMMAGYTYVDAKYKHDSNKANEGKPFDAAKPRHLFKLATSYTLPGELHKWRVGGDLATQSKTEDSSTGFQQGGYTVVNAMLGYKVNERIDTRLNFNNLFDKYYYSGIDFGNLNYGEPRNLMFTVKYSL
Procedure: Cells were equilibrated for 5 min prior to introduction of the siderophores. Fluorescence was recorded every min for 1 h. Carbonyl cyanide m-chlorophenylhydrazone (CCCP) was used as a control to inhibit fluorescence recovery through dissipation of the proton motive force (PMF) ([2], [3]), which is required for uptake.
Cells were cultured overnight in LB with carbenicillin (200 μg/mL) at 37°C with shaking at 200 rpm. Cells were subcultured (1:200 dilution) in 10:90 plus 2% arabinose for 4 h without carbenicillin at 37°C with shaking at 200 rpm. Cells were harvested by centrifugation for 5 min and 6,000 × g and resuspended in sterile 1× phosphate-buffered saline (PBS) (pH 7.4); 1× PBS was made from a 10× stock (80 g NaCl, 2 g KCl, 26.8 g Na2 HPO4-7H2O, 2.4 g KH2PO4 in 1 L of deionized H2O) with 10 μM Alexa Fluor 594 C5 maleimide for microscopy or fluorescein-5-maleimide for fluorescence quenching and recovery assays and incubated in the dark at […] for 30 min on a shaking incubator at 37°C (200 rpm). Excess dye was quenched with 1 mM dithiothreitol (DTT) (Sigma) to stop the reaction. Cells were washed 3× with PBS. For fluorescence recovery assays, cells were incubated with 1× PBS plus 0.4% glucose at 37°C with shaking at 200 rpm. […] Cells were spun down and washed 3× with 1× PBS and resuspended in 1× PBS for quenching assays and 1× PBS plus 0.4% glucose for fluorescence recovery assays.
For fluorescence quenching and recovery assays, cells were diluted to an OD600 of 0.1 for both types of assays, and 148 μL was added into wells of a 96-well black plate (Corning). Fluorescence was recorded for 5 min at 1-min intervals at 37°C (BioTek Neo; excitation, 494 nm; emission, 520 nm). […] Fluorescence was recorded immediately for quenching assays and for 1 h at 1-min intervals for fluorescence recovery assays. Background fluorescence was subtracted from all fluorescence readings and 1-F/F0 was used to calculate the degree of quenching, where F0 is the initial fluorescence. Kd was calculated using GraphPad Prism using a one-site specific binding model or a two-site model. […]

FpvB = assay: Western blot of FLAG-tagged FpvB expression after compound treatment; type: cell-based, Pseudomonas aeruginosa; settings: WT PA14 fpvB-FLAG; 10 μg/mL siderophores, 64 μg/mL DSX, 10:90
PA14 ΔpvdA ΔpchA mutant = assay: Growth curves with DSX and siderophores, ΔpvdA ΔpchA; type: cell-based, Pseudomonas aeruginosa; settings: 64 μg/mL DSX + 10 μg/mL siderophore, 20 h
Procedure: as §1, §3

PA14 ΔfpvA mutant = assay: Growth curves with DSX and siderophores, ΔfpvA; type: cell-based, Pseudomonas aeruginosa; settings: 20 h; for growth with siderophore in the presence of DSX: 64 μg/mL DSX + 10 μg/mL siderophore
Procedure: as §1, §2, §3

NCCCCC(NC(=O)C(CO)NC(=O)[C@@H]1CCN=C2C(NC(=O)CCC(=O)O)=Cc3cc(O)c(O)cc3N21)C(=O)NCC(=O)NC(CCCN(O)C=O)C(=O)NC1CCCCNC(=O)C(CO)NC(=O)C(CCCN(O)C=O)NC1=O (some centres unmarked) [pyoverdine] (Suc-[X1][ξS][ξK]G[ξOrn(N(OH)CHO)][ξK][ξOrn(N(OH)CHO)][ξS]; lactam 6-C)
growth versus control (PA14 ΔfpvA ΔfpvB mutant; DSX 64 μg/mL, pyoverdine 10 μg/mL): inhibited | fluorescence recovery (FpvB R648C; siderophore at 1/2 Kd (1/2 Kd2 for ferrioxamine B), recorded for 1 h): no recovery | stimulation of FpvB expression (FpvB): None of the compounds stimulated expression | growth with siderophore in the presence of DSX (PA14 ΔpvdA ΔpchA mutant): restored growth | growth with siderophore in the presence of DSX (PA14 ΔfpvA mutant): restored growth compared to DSX alone | growth versus control (PA14 ΔfpvA mutant; DSX 64 μg/mL or pyoverdine 10 μg/mL alone, 10:90): delayed growth

CC(=O)N(O)CCCCCNC(=O)CCC(=O)N(O)CCCCCNC(=O)CCC(=O)N(O)CCCCCN [ferrioxamine B]
growth with siderophore in the presence of DSX (PA14 ΔfpvA ΔfpvB mutant; 64 μg/mL DSX + 10 μg/mL siderophore): rescued growth | fluorescence recovery (FpvB R648C): ~ 50 % of the control | stimulation of FpvB expression (FpvB): None of the compounds stimulated expression | growth with siderophore in the presence of DSX (PA14 ΔpvdA ΔpchA mutant): rescued growth | growth with siderophore in the presence of DSX (PA14 ΔfpvA mutant): rescued growth
